Our source for the Ki values is ChEMBL document CHEMBL1137571 (J Med Chem, 2007).

SMILES strings stand for the structures.

Assay [1] concerns the target T1, Amine oxidase [flavin-containing] A (Homo sapiens, UniProt P21397).
T1 sequence (P21397 whole entry): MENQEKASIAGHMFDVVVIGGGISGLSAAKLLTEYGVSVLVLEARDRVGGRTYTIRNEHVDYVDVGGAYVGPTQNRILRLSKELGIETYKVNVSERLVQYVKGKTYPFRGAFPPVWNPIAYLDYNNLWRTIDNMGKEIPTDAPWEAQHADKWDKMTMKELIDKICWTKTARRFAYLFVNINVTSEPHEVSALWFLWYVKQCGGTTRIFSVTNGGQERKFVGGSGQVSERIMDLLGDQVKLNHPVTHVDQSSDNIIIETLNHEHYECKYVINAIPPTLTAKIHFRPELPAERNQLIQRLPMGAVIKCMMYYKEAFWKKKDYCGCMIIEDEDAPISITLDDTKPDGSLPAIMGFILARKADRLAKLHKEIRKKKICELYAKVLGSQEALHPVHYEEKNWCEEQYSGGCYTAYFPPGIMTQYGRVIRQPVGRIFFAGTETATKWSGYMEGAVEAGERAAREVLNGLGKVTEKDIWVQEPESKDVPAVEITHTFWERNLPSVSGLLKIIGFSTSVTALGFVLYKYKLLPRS
The assay is described as follows: Inhibition of human recombinant MAOA expressed in Pichia pastoris.

Assay [2] has as its target T2, Amine oxidase [flavin-containing] B (Homo sapiens, UniProt P27338).
T2 sequence (P27338 whole entry): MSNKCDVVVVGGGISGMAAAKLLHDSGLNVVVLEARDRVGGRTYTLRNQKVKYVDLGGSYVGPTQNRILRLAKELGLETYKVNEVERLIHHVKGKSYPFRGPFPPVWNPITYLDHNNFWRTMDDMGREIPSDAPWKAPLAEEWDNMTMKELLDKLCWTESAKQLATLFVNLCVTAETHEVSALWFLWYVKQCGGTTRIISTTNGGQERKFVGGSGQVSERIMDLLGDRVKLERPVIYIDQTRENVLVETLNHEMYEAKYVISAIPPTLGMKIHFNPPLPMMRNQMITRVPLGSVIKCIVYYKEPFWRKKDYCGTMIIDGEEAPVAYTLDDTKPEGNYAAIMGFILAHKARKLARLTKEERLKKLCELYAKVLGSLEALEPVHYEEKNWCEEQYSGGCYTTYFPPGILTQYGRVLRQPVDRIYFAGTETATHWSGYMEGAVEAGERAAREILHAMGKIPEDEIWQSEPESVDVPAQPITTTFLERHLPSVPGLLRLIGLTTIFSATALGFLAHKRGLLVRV
The assay is described as follows: Inhibition of human recombinant MAOB expressed in Pichia pastoris.

The Ki is a measure of affinity in units of concentration, obtained from inhibition or displacement. For `CNCc1cc(=O)oc2cc(OCc3cccc(Cl)c3)ccc12`, the values for the Ki in assay [1] and in assay [2] were 15.7 µM and 0.1 µM, respectively.
Turning to `O=Cc1cc(=O)oc2cc(OCc3cccc(Cl)c3)ccc12`, the Ki amounted to 11 µM in assay [1] and 0.4 µM in assay [2].
